Laboratory results: patent publication US20090143279A1 (priority 2007, published 2009)
Several values for one entry are separate records, joined by “and”; a condition that tells them apart may be missing. Identical values can stand only once. Like-named read-outs stand apart in the source and are kept apart here.

Legend:
OXPHOS gene expression = type: cell-based, mouse
reactive oxygen species = type: cell-based, mouse
cytochrome c = type: cell-based, mouse
nuOXPHOS transcripts = type: cell-based, mouse
[1] = test system: cellular dehydrogenase activity
[2] = test system: mitochondrial membrane potential; type: cell-based, mouse
mtOXPHOS transcripts = type: cell-based, mouse
[3] = Table 3, differentiated C2C12 myotubes, 48 h treatment, composite Z-score vs DMSO
[4] = Table 5, C2C12 myotubes, 48 h, composite Z-score
[5] = retest at 20 nM to 20 μM, FIG. 6a
[6] = Table 6, C2C12 myotubes, 48 h, composite Z-score
[7] = composite Z-score vs mock-treated (DMSO) wells, Conc 20 μM
[8] = composite Z-score vs DMSO, Conc 20 μM
[9] = 20 μM, composite Z-score vs DMSO

cytochrome c, sequence (P62897 whole entry): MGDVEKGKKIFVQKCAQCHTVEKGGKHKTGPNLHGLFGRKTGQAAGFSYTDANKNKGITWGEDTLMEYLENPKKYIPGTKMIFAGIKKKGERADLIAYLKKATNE

## COC(=O)Nc1nc2cc(C(=O)c3cccs3)ccc2[nH]1 [Nocodazole, methyl[5-(2-thienylcarbonyl)-1H-benzimidazol-2-yl]carbamate, reference compound]
OXPHOS gene expression; [3]
  GEHTS_Zscore: 2.675
OXPHOS gene expression; [4]
  GEHTS_Zscore: 2.675
OXPHOS gene expression; primary screen, in words
  OXPHOS expression: boost OXPHOS expression
OXPHOS gene expression; [5]
  dose at which OXPHOS expression increased: 2 µM
Reactive oxygen species; [3]
  ROS Zscore: −1.099
Reactive oxygen species; [4]
  ROS Zscore: −1.099
Reactive oxygen species; primary screen, in words
  ROS levels: suppressing ROS levels
Reactive oxygen species; [5]
  dose at which ROS levels decreased: 2 µM

## O=c1cccc2n1C[C@@H]1CNC[C@H]2C1 [cytisine]
Cytochrome c
  cyt c: 0.186 and 0.095
OXPHOS gene expression
  GE-HTS: 0.025
Reactive oxygen species
  ROS: 1.150

## C[C@H]1C/C=C/[C@H]2[C@@H]3O[C@]3(C)[C@@H](C)[C@H]3[C@H](Cc4ccccc4)NC(=O)[C@]32OC(=O)O/C=C/[C@@](C)(O)C1=O [cytochalasin e, reference compound]
OXPHOS gene expression; [3]
  GEHTS_Zscore: 2.827
Reactive oxygen species; [3]
  ROS Zscore: −2.109

## C=C(C)[C@@H]1CC[C@]2(CO)CC[C@]3(C)[C@H](CC[C@@H]4[C@@]5(C)CC[C@H](O)C(C)(C)[C@@H]5CC[C@]43C)[C@@H]12 [betulin]
nuOXPHOS transcripts
  nucOX: 0.598

## COc1ccc2c(c1)OCC(Cc1ccc(OC)c(OC)c1)C2=O (centres unmarked) [deoxysappanone (B) trimethyl ether, reference compound]
OXPHOS gene expression; [6]
  GEHTS_Zscore: 0.768
Reactive oxygen species; [6]
  ROS Zscore: 1.064

## CCCSc1ccc2nc(NC(=O)OC)[nH]c2c1 [albendazole, reference compound]
Cytochrome c
  cyt c: −0.280
OXPHOS gene expression
  GEHTS_Zscore: 2.379
Reactive oxygen species
  ROS Zscore: −1.434

## CN(C)CCCN1c2ccccc2Sc2ccc(C(F)(F)F)cc21 [triflupromazine]
OXPHOS gene expression
  GE-HTS: 0.225
Reactive oxygen species
  ROS: 1.208
nuOXPHOS transcripts
  nucOX: 0.404

## COc1ccc2c(c1)OCC(Cc1ccc(OC(C)=O)c(OC)c1)C2=O (centres unmarked) [deoxysappanone (B) 7,3′-dimethyl ether acetate, reference compound]
OXPHOS gene expression; [6]
  GEHTS_Zscore: −0.723
Reactive oxygen species; [6]
  ROS Zscore: −1.894

## OCCN1CCN(CCCN2c3ccccc3Sc3ccc(Cl)cc32)CC1 [Perphenazine, reference compound]
nuOXPHOS transcripts; 20 μM, within the first hour of treatment
  decline of nuOXPHOS expression: 21%

## COc1ccc2c(c1)OCC(=Cc1ccc(O)c(O)c1)C2=O [sappanone (A) 7-methyl ether, reference compound]
OXPHOS gene expression; [6]
  GEHTS_Zscore: 1.410
Reactive oxygen species; [6]
  ROS Zscore: −1.493

## COC1=CC(=O)C[C@@H](C)[C@]12Oc1c(Cl)c(OC)cc(OC)c1C2=O [griseofulvin, reference compound]
OXPHOS gene expression; [4]
  GEHTS_Zscore: 2.199
OXPHOS gene expression; primary screen, in words
  OXPHOS expression: modest increase
Reactive oxygen species; [4]
  ROS Zscore: 0.371
Reactive oxygen species; primary screen, in words
  ROS levels: did not display the same decrease in ROS levels

## CC[C@H]1CN2CCc3cc(OC)c(OC)cc3[C@@H]2C[C@@H]1C[C@H]1NCCc2cc(OC)c(OC)cc21 [Emetine, reference compound]
Cytochrome c
  cyt c: −1.644
  cyt c (composite Z-score): −0.191
nuOXPHOS transcripts
  nuOXPHOS expression: preferentially increase

## CC(C)=CCCC1(C)C=Cc2c(O)c3c(c(CC=C(C)C)c2O1)OC12C(=CC4CC1C(C)(C)OC2(C/C=C(/C)C(=O)O)C4O)C3=O (centres unmarked) [dihydrogambogic acid]
[1]; [7]
  MTT: −6.208
Cytochrome c; [7]
  cyt c: −5.191
Reactive oxygen species; [7]
  ROS: −2.239
C2C12 myotubes; [7]
  Viability: −5.468
[2]; [7]
  ΔΨm: −3.431

## CC1(C)C(=O)C=C[C@@]2(C)C1=C(O)C(=O)[C@]1(C)[C@@H]2CC[C@@]2(C)[C@H](c3ccoc3)C[C@H]3O[C@]321 [cedrelone]
[1]; [7]
  MTT: −6.617
Cytochrome c; [7]
  cyt c: −5.998
Reactive oxygen species; [7]
  ROS: −3.982
C2C12 myotubes; [7]
  Viability: −4.680
[2]; [7]
  ΔΨm: −3.459

## C=C(C)/C=C1/C=CC(=O)C(C)=C1 [retusoquinone]
[1]; [7]
  MTT: −6.075
Cytochrome c; [7]
  cyt c: −5.303
Reactive oxygen species; [7]
  ROS: −3.565
C2C12 myotubes; [7]
  Viability: −5.371
[2]; [7]
  ΔΨm: −3.628

## CCOC(=O)N1CCC(=C2c3ccc(Cl)cc3CCc3cccnc32)CC1 [loratadine]
[1]
  MTT: −1.609
Cytochrome c
  cyt c: −0.317
OXPHOS gene expression
  GE-HTS: −0.306
Reactive oxygen species
  ROS: 0.764
C2C12 myotubes
  Viability: 0.552
[2]
  ΔΨm: 0.191

## COc1ccc2c(c1)CC[C@@H]1[C@@H]2CC[C@]2(C)[C@@H](O)[C@H](O)C[C@@H]12 [estriol methyl ether]
[1]
  MTT: −1.611
Cytochrome c; [8]
  cyt c: 0.241
Reactive oxygen species
  ROS: 0.299
C2C12 myotubes
  Viability: 0.054
[2]
  ΔΨm: −0.046

## CC(=O)N(CC(O)CO)c1c(I)c(C(=O)NCC(O)CO)c(I)c(C(=O)NCC(O)CO)c1I (centres unmarked) [iohexol]
[1]
  MTT: −1.085
Cytochrome c
  cyt c: 0.080
Reactive oxygen species
  ROS: 0.568
C2C12 myotubes
  Viability: −0.374
[2]
  ΔΨm: −0.970

## Cc1c(N(C)C)c(=O)n(-c2ccccc2)n1C [amidopyrine]
[1]
  MTT: −0.051
Cytochrome c
  cyt c: 0.748
Reactive oxygen species
  ROS: −0.776
C2C12 myotubes
  Viability: 0.691
[2]
  ΔΨm: −0.496

## dimenhydrinate
[1]; [8]
  MTT: −1.505
OXPHOS gene expression; [8]
  GE-HTS: −0.225
Reactive oxygen species; [8]
  ROS: 0.339
[2]; [8]
  ΔΨm: −0.890
nuOXPHOS transcripts; [8]
  nucOX: −0.086

## O=C(O)CCCOc1ccc(Cl)cc1Cl [2,4-dichlorophenoxybutyric acid]
[1]
  MTT: −1.368
Cytochrome c
  cyt c: 0.711
Reactive oxygen species
  ROS: 0.758
C2C12 myotubes
  Viability: 0.337
[2]
  ΔΨm: −0.479

## COc1ccc2c(c1)OC/C(=C/c1ccc(OC)c(OC)c1)C2=O [sappanone (A) trimethyl ether, reference compound]
OXPHOS gene expression; [6]
  GEHTS_Zscore: 2.376
Reactive oxygen species; [6]
  ROS Zscore: 0.1195

## CC(=O)O[C@H]1CC[C@@]2(C)C(=CC[C@@H]3[C@@H]2CC[C@]2(C)C(=O)CC[C@@H]32)C1 [praesterone acetate]
[1]
  MTT: 1.084
Cytochrome c
  cyt c: −0.521
Reactive oxygen species
  ROS: 0.054
C2C12 myotubes
  Viability: 1.018
[2]
  ΔΨm: 1.329

## CC(=O)[O-].CC(=O)[O-].[Cd+2] [cadmium acetate]
[1]
  MTT: −1.896
Cytochrome c
  cyt c: −2.166
Reactive oxygen species
  ROS: −1.066
C2C12 myotubes
  Viability: −1.393
[2]
  ΔΨm: −1.276

## CC(=O)CCCCn1c(=O)c2c(ncn2C)n(C)c1=O [pentoxifylline]
[1]; [9]
  MTT: −0.600
Cytochrome c; [9]
  cyt c: −0.798
OXPHOS gene expression; [9]
  GE-HTS: 0.062
Reactive oxygen species; [9]
  ROS: 0.182
C2C12 myotubes; [9]
  Viability: 0.375
[2]; [9]
  ΔΨm: −0.696
nuOXPHOS transcripts; [9]
  nucOX: 0.292

## sappanone (A) dimethyl ether [reference compound]
OXPHOS gene expression; [6]
  GEHTS_Zscore: 0.524
Reactive oxygen species; [6]
  ROS Zscore: −2.429

## COc1ccc2c(c1)OC[C@@H](Cc1ccc(OC)c(OC)c1)[C@H]2O [tetrahydrosappanone (A) trimethyl ether, reference compound]
OXPHOS gene expression; [6]
  GEHTS_Zscore: 0.583
Reactive oxygen species; [6]
  ROS Zscore: 0.274

## CC(=O)Nc1ccc(O)cc1 [acetaminophen]
Reactive oxygen species
  ROS: 0.527
mtOXPHOS transcripts
  mitoOX: 0.317

## CC1=C(O)C(=O)C=C2C1=CC=C1[C@@]2(C)CC[C@@]2(C)[C@@H]3C[C@](C)(C(=O)O)CC[C@]3(C)CC[C@]12C [celastrol]
[1]; [8]
  MTT: −6.584
Cytochrome c; [8]
  cyt c: −5.979
Reactive oxygen species; [8]
  ROS: −2.732
C2C12 myotubes; [8]
  Viability: −4.797
[2]; [8]
  ΔΨm: −3.520

## COc1cc2c(c(OC)c1OC)-c1ccc(OC)c(=O)cc1[C@@H](NC(C)=O)CC2 [Colchicine, reference compound]
OXPHOS gene expression
  OXPHOS expression: modest increase
Reactive oxygen species
  ROS levels: did not display the same decrease in ROS levels
nuOXPHOS transcripts
  nucOX: 0.807 and 1.549

## COc1ccc2cc([C@@H](C)C(=O)[O-])ccc2c1.[Na+] [(R)-naproxen sodium salt]
[1]
  MTT: 0.325
Cytochrome c
  cyt c: 0.444
Reactive oxygen species
  ROS: −0.736
C2C12 myotubes
  Viability: 0.632
[2]
  ΔΨm: −0.253

## O=C1C(O)=C(O)C(=O)C(O)=C1O [tetrahydroxy-1,4-quinone]
[1]
  MTT: −1.965
Cytochrome c
  cyt c: −0.785
Reactive oxygen species
  ROS: 0.667
C2C12 myotubes
  Viability: −1.006
[2]
  ΔΨm: −0.511

## CC [methylmethane]
[1]
  MTT: −1.330
Cytochrome c
  cyt c: 0.221
Reactive oxygen species
  ROS: 0.909
C2C12 myotubes
  Viability: −1.159
[2]
  ΔΨm: −0.924

## podophyllotoxin acetate [reference compound]
OXPHOS gene expression; [3]
  GEHTS_Zscore: 3.506
Reactive oxygen species; [3]
  ROS Zscore: −1.656

## C[C@@H]1CC[C@@]23CCC4(C)[C@@](C=CC5[C@@]6(C)CC[C@H](O)C(C)(C)C6CC[C@]54C)(OC2=O)C3[C@H]1C (some centres unmarked) [dehydro (11,12)ursolic acid lactone]
[1]
  MTT: 0.402
Cytochrome c; normalized composite Z-score vs mock-treated (DMSO) wells, Conc 20 μM
  cyt c: −0.175
Reactive oxygen species
  ROS: 0.385
C2C12 myotubes
  Viability: −0.003
[2]
  ΔΨm: −0.429

## C[C@@H](N)[C@@H](O)c1ccccc1 [1S,2R-phenylpropanolamine]
[1]
  MTT: −1.507
Cytochrome c; [8]
  cyt c: 0.280
Reactive oxygen species
  ROS: 0.721
C2C12 myotubes
  Viability: 0.296
[2]
  ΔΨm: −0.137

## L-methionine sulfoximine
[1]
  MTT: −1.902
Cytochrome c
  cyt c: −0.412
Reactive oxygen species
  ROS: 0.762
C2C12 myotubes
  Viability: −0.928
[2]
  ΔΨm: −0.703

## C=C(C)CCCC(C)CCOC(C)=O (centres unmarked) [rhodinyl acetate]
[1]
  MTT: −0.833
Cytochrome c
  cyt c: 0.137
Reactive oxygen species
  ROS: −0.024
C2C12 myotubes
  Viability: −0.197
[2]
  ΔΨm: −0.631

## COC(=O)[C@]1(C)CC[C@]2(C)CC[C@]3(C)C4=CC=C5C(=CC(=O)C(O)=C5C)[C@]4(C)CC[C@@]3(C)[C@@H]2C1 [pristimerin]
[1]; [8]
  MTT: −6.164
Cytochrome c; [8]
  cyt c: −5.896
Reactive oxygen species; [8]
  ROS: −3.693
C2C12 myotubes; [8]
  Viability: −5.473
[2]; [8]
  ΔΨm: −3.651
